The record followed here is patent publication US8815775B2 (priority 2010, dated 2014).

Where two headings read alike, the source gives them in different places.

A short description of the data set: log P by HPLC (EEC Directive 79/831 Annex V.A8). The data set is classed as physicochemical. The following applies: HPLC with aqueous formic acid/acetonitrile eluents, pH 2.7. As for the experimental part:
The log P values were measured according to EEC Directive 79/831 Annex V.A8 by HPLC (high-performance liquid chromatography).
The LC-MS determination within the acidic range is effected at pH 2.7 with 0.1% aqueous formic acid and acetonitrile (contains 0.1% formic acid) as eluents; linear gradient from 10% acetonitrile to 95% acetonitrile.
The calibration is carried out using unbranched alkan-2-ones (having 3 to 16 carbon atoms) with known log P values (determination of the log P values by the retention times using linear interpolation between two successive alkanones). The lambda-maX values were determined in the maxima of the chromatographic signals using the UV spectra from 200 nm to 400 nm.

`CN(C(=O)c1csc(C2(F)CCN(C(=O)Cn3nc(C(F)F)cc3C(F)F)CC2)n1)C1CCCc2ccccc21` (racemic) [I-a-4, (±)-2-(1-{[3,5-bis(Difluoromethyl)-1H-pyrazol-1-yl]acetyl}-4-fluoropiperidin-4-yl)-N-methyl-N-(1,2,3,4-tetrahydronaphthalen-1-yl)-1,3-thiazole-4-carboxamide]: the chromatographic logP (read-out: log P (pH2.7)) came to 3.56.
`CC(C)(C)OC(=O)N1CCC(O)(c2nc(Br)cs2)CC1` [IV-1, tert-Butyl 4-(4-bromo-1,3-thiazol-2-yl)-4-hydroxypiperidine-1-carboxylate]: the chromatographic logP (HCOOH, read-out: log P (HCOOH)) was determined as 2.74.
For the compound `CCOC(=O)c1csc(C2(F)CCN(C(=O)Cn3nc(C(F)F)cc3C(F)F)CC2)n1` [IXa-1, Ethyl 2-(1-{[3,5-bis(difluoromethyl)-1H-pyrazol-1-yl]acetyl}-4-fluoropiperidin-4-yl)-1,3-thiazole-4-carboxylate], the chromatographic logP (read-out: log P (pH2.7)) stood at 2.82.
The same measure, in the same setting: the same measure for `CCOC(=O)c1csc(C2(F)CCNCC2)n1` [VII-1, 4-[4-(Ethoxycarbonyl)-1,3-thiazol-2-yl]-4-fluoropiperidinium chloride]: 0.39; for `CCOC(=O)c1csc(C2(F)CCN(C(=O)OC(C)(C)C)CC2)n1` [VIa-1, tert-Butyl 4-[4-(ethoxycarbonyl)-1,3-thiazol-2-yl]-4-fluoropiperidine-1-carboxylate]: 3.47.
In the case of `CC(C)(C)OC(=O)N1CCC(F)(c2nc(Br)cs2)CC1` [Va-1, tert-Butyl 4-(4-bromo-1,3-thiazol-2-yl)-4-fluoropiperidine-1-carboxylate], the chromatographic logP (HCOOH, read-out: log P (HCOOH)) worked out at 3.94.
Consider `O=C(O)c1csc(C2(F)CCN(C(=O)Cn3nc(C(F)F)cc3C(F)F)CC2)n1` [Xa-1, 2-(1-{[3,5-bis(Difluoromethyl)-1H-pyrazol-1-yl]acetyl}-4-fluoropiperidin-4-yl)-1,3-thiazole-4-carboxylic acid], for which the chromatographic logP (read-out: log P (pH2.7)) amounted to 1.96.
